{"source": "patent US10265284B2", "about": "“Composition for use in the treatment of intervertebral disc-related pain” (STAYBLE THERAPEUTICS AB, priority 2015, dated 2019)", "type_in_all_cases": "in vivo, pig", "key": {"[1]": {"assay": "Tolerability and adverse reactions after intradiscal injection, Example 1", "description": "Two pigs were anesthetized and placed on their right side. Access to the L4-5 intervertebral disc was obtained through a lateral incision between the lowest rib and the iliac crest on the left side of each pig. Thereafter, the L3-4 intervertebral disc was incised with a scalpel.\nThe composition was injected in a single step at a single occasion.\nAt harvest, the pigs were killed.\nThe injection site was observed by the naked eye. […] The segment of the vertebral column extending from the lumbar vertebra L2 to the sacral vertebra S1 was removed. The facet joints were removed, thus allowing full flexibility of the discs with no restraints from other structures."}, "[2]": {"test_system": "nucleus pulposus of the L3-4 intervertebral disc", "assay": "Flexion stiffness of the injected L3-4 intervertebral disc, Example 1", "settings": "injected L 3-4 vs non-injected L 2-3 and L 4-5; seven days", "description": "Access to the L4-5 intervertebral disc was obtained through a lateral incision between the lowest rib and the iliac crest on the left side of each pig. Thereafter, the L3-4 intervertebral disc was incised with a scalpel. […] The composition was injected in a single step at a single occasion."}, "[3]": {"test_system": "nucleus pulposus of the L3-4 intervertebral disc", "assay": "Dimension of the disc space after injection, Example 1", "description": "110. performing a cross-section of the discs and measuring the length (anterio-posterior direction) and the width (bilateral direction) of the disc space. Two pigs were anesthetized and placed on their right side. Access to the L4-5 intervertebral disc was obtained through a lateral incision between the lowest rib and the iliac crest on the left side of each pig. Thereafter, the L3-4 intervertebral disc was incised with a scalpel. […] The composition was injected in a single step at a single occasion. The intervertebral discs (L2-3, L3-4, L4-5) were cross-sectioned and the length of the disc space (anterio-posterior direction) and the width (bilateral direction) of the disc space were measured by calipers. In FIGS. 5 and 6, an intervertebral disc is schematically shown in cross-section. The intervertebral disc comprises the annulus fibrosus 10, and a disc space defined by the annulus fibrosus and comprising the nucleus pulposus 11."}, "[4]": {"settings": "injected L 3-4 vs non-injected L2-3, L4-5, seven days"}}, "data": [{"compound": "CC(O)C(=O)O", "note": "(stereo not drawn) [lactic acid]", "values": [{"measurement": "Adverse reaction such as decreased mobility or vocalization", "setting": "[1]; both pigs, period of seven days until harvest, 0.2 mL of 1.34 mol/L, pH 1.8, into L3-4 disc", "result": "no adverse reaction"}, {"measurement": "Adverse reaction at the injection site, such as bleedings, inflammation or necrosis", "setting": "[1]; naked eye at harvest, seven days after injection", "result": "No adverse reaction at the injection site"}, {"measurement": "Balanced value (flexion stiffness) of injected discs compared with non-injected adjacent discs", "setting": "[2]", "result": "much smaller balanced value"}, {"measurement": "Cross-sectional area of the disc space compared with non-injected discs", "setting": "[3]; FIG. 7, injected L3-4 vs non-injected L2-3 and L4-5, naked eye", "result": "much smaller cross-sectional area"}, {"measurement": "Average anterio-posterior length of the disc space compared with non-injected discs", "setting": "[3]; [4]", "result": "significantly lower"}, {"measurement": "Average bilateral width of the disc space compared with non-injected discs", "setting": "[3]; [4]", "result": "significantly lower"}]}]}
